The values below come from PubChem BioAssay (NCI).

SMILES strings stand for the structures. Values joined by “and” are separate entries in the source; they are usually repeats but may differ in a detail not shown here. Equal values may be shown once.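 Five compound concentrations were applied to cells in 96-well plates for 48 hours; endpoints were derived by simple linear interpolation of the resulting dose-response curve. Here, GI50 denotes the concentration required for 50% inhibition of growth. TGI is the concentration that stops growth completely.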

Test systems include EKVX NSCLC; HCT-116 colon; HS 578T breast; IGROV1 ovarian; NCI-H522 lung; NCI/ADR-RES ovarian; OVCAR-3 ovarian; OVCAR-5 ovarian; SK-MEL-2 melanoma; SNB-75 CNS.
What all share (assay): growth of human tumour cells (NCI), 48 h

On to `O=C(NN1C(=O)CSC1c1ccc(F)cc1)C(O)c1ccccc1` (stereo not given), for which the GI50 with EKVX NSCLC was over 100 µM; in the test on HCT-116 colon, over 100 µM; with HS 578T breast, over 100 µM; with IGROV1 ovarian, over 100 µM; in the test with NCI-H522 lung it was 93.6 µM; in the test on NCI/ADR-RES ovarian, over 100 µM. Besides, the GI50 is 79.5 µM in the test with OVCAR-3 ovarian, over 100 µM in the test with OVCAR-5 ovarian, over 100 µM in the test with SK-MEL-2 melanoma and 33.4 µM in the test with SNB-75 CNS. The TGI in the test on EKVX NSCLC, in the test with HCT-116 colon, with HS 578T breast, in the test with IGROV1 ovarian, in the test with NCI-H522 lung and in the test with NCI/ADR-RES ovarian was over 100 µM throughout. Moreover, the TGI in the test on OVCAR-3 ovarian, with OVCAR-5 ovarian, in the test on SK-MEL-2 melanoma and with SNB-75 CNS was over 100 µM each time.
On to `CC(=O)OC(C)C(OC(C)=O)C(OC(C)=O)C(/C=C/C1CC=CC(=O)O1)OC(C)=O` (stereo not given), for which the GI50 in the test with EKVX NSCLC was 39.6 µM; in the test with HCT-116 colon it was 20.4 µM; in the test on HS 578T breast, 12.4 µM; in the test on IGROV1 ovarian, 32 µM; in the test with NCI-H522 lung it was 22.9 µM; in the test on NCI/ADR-RES ovarian, over 100 µM. For the same compound, the GI50 in the test with OVCAR-3 ovarian is 30.8 µM; in the test on OVCAR-5 ovarian, 82.8 µM; with SK-MEL-2 melanoma, 35.9 µM; in the test with SNB-75 CNS, 10.3 µM. Also, the TGI is over 100 µM in the test with EKVX NSCLC; 48.4 µM in the test with HCT-116 colon; 33.1 µM in the test on HS 578T breast; over 100 µM in the test on IGROV1 ovarian; 60.3 µM in the test on NCI-H522 lung; over 100 µM in the test with NCI/ADR-RES ovarian. For the same compound, the TGI in the test with OVCAR-3 ovarian was 95.5 µM; in the test on OVCAR-5 ovarian, over 100 µM; in the test on SK-MEL-2 melanoma it was over 100 µM; in the test with SNB-75 CNS, 28.6 µM.
For the compound `Nc1n[nH]c2ccc([C@@H]3Nc4cc5[nH]ncc5cc4[C@H]4C5CCC(C5)[C@@H]34)cc12` (stereo not given in full), the GI50 in the test with EKVX NSCLC was 0.485 µM; in the test with HCT-116 colon, 0.416 µM; in the test on HS 578T breast, 0.369 µM; with IGROV1 ovarian, 0.533 µM; with NCI-H522 lung it was 0.396 µM; in the test on NCI/ADR-RES ovarian it was 0.807 µM. For the same compound, the GI50 is 0.381 µM in the test with OVCAR-3 ovarian, 0.565 µM in the test with OVCAR-5 ovarian, 0.736 µM with SK-MEL-2 melanoma and 0.27 µM in the test with SNB-75 CNS. The TGI is over 100 µM in the test on EKVX NSCLC; over 100 µM in the test with HCT-116 colon; over 100 µM in the test with HS 578T breast; 41.8 µM with IGROV1 ovarian; over 45.6 µM with NCI-H522 lung; over 100 µM in the test with NCI/ADR-RES ovarian. Further, the TGI was 13.3 µM in the test on OVCAR-3 ovarian, over 80.9 µM in the test with OVCAR-5 ovarian, over 70.5 µM with SK-MEL-2 melanoma and 22.9 µM in the test on SNB-75 CNS.
Turning to `O=C1c2ccccc2C(=O)N1C1(C(=O)NC2(C(=O)O)CCCC2)CCCC1`, the TGI in the test with EKVX NSCLC, in the test with HCT-116 colon, with HS 578T breast, in the test with IGROV1 ovarian, with NCI-H522 lung and with NCI/ADR-RES ovarian was over 100 µM each time. The TGI in the test with OVCAR-3 ovarian, in the test with OVCAR-5 ovarian, with SK-MEL-2 melanoma and in the test on SNB-75 CNS was over 100 µM throughout.
With `O=C1CSC(c2ccccc2O)N1c1nnc(Cn2ccnc2)o1` (stereo not given), the GI50 is 3.5 µM in the test on EKVX NSCLC; 9.86 µM with HCT-116 colon; 20.5 µM with HS 578T breast; 16 µM in the test on IGROV1 ovarian; 12 µM in the test with NCI-H522 lung; 3.18 µM in the test with NCI/ADR-RES ovarian. In addition, the GI50 in the test on OVCAR-3 ovarian was 3.04 µM; in the test on OVCAR-5 ovarian, 22.1 µM; with SK-MEL-2 melanoma, 15.2 µM; in the test with SNB-75 CNS it was 11.6 µM. The TGI with EKVX NSCLC is 20 µM; in the test on HCT-116 colon, 43.7 µM; in the test with HS 578T breast, over 100 µM; with IGROV1 ovarian, 37 µM; with NCI-H522 lung it was 33 µM; in the test with NCI/ADR-RES ovarian, 29.6 µM. In addition, the TGI was 16.4 µM in the test on OVCAR-3 ovarian, 50.7 µM in the test on OVCAR-5 ovarian, 36.4 µM in the test on SK-MEL-2 melanoma and over 100 µM in the test on SNB-75 CNS.
Take `CCN(CC)C(=S)SSC(=S)N(CC)CC`: the GI50 in the test on EKVX NSCLC was 25.7 µM and 25.6 µM; in the test on HCT-116 colon, 11.4 µM; with HS 578T breast, 20.9 µM and 105 µM; with IGROV1 ovarian, 142 µM; in the test on NCI-H522 lung, 11.6 µM and 18.3 µM; in the test on NCI/ADR-RES ovarian it was 18.1 µM and 17.6 µM. Besides, the GI50 was 15.1 µM and 15.3 µM with OVCAR-3 ovarian; 35.4 µM and 17.9 µM in the test on OVCAR-5 ovarian; 26.3 µM and 82.2 µM in the test on SK-MEL-2 melanoma; 20.7 µM and 18.2 µM with SNB-75 CNS. For the same compound, the TGI in the test on EKVX NSCLC was 84.6 µM and 73.3 µM; in the test on HCT-116 colon, 24.9 µM; with HS 578T breast, 64 µM and 501 µM; with IGROV1 ovarian, 543 µM; with NCI-H522 lung it was 27.9 µM and 38.4 µM; in the test with NCI/ADR-RES ovarian, 39.9 µM and 37.9 µM. The TGI in the test on OVCAR-3 ovarian is 32.5 µM and 29.4 µM; with OVCAR-5 ovarian, > 56 µM and 32.6 µM; in the test on SK-MEL-2 melanoma, 71.1 µM and 297 µM; in the test with SNB-75 CNS, > 56.7 µM and 57.3 µM.
As to `C=C1CC[C@@H]2[C@](C)(COC(C)=O)[C@H](OC(C)=O)CC[C@@]2(C)[C@@H]1CC(Nc1ccc(S(=O)(=O)Nc2nccs2)cc1)C1=CCOC1=O` (stereo not given in full), the GI50 with EKVX NSCLC is 14 µM; with HCT-116 colon, 1.75 µM; in the test on HS 578T breast it was 10.8 µM; in the test on IGROV1 ovarian, 4.54 µM; in the test on NCI-H522 lung, 1.72 µM; in the test with NCI/ADR-RES ovarian, 2.97 µM. The GI50 with OVCAR-3 ovarian is 1.88 µM; in the test with OVCAR-5 ovarian, 4.82 µM; with SK-MEL-2 melanoma it was 10.6 µM; in the test on SNB-75 CNS, 2.83 µM. Moreover, the TGI in the test with EKVX NSCLC came to 27 µM; in the test on HCT-116 colon it was 3.75 µM; in the test on HS 578T breast it was 60.4 µM; in the test with IGROV1 ovarian, 17.1 µM; in the test on NCI-H522 lung, 4.32 µM; with NCI/ADR-RES ovarian, 12.7 µM. Further, the TGI with OVCAR-3 ovarian was found to be 3.64 µM; with OVCAR-5 ovarian, 17.6 µM; in the test on SK-MEL-2 melanoma it was 24.4 µM; in the test on SNB-75 CNS, 15.6 µM.
On to `CCN(C(=O)CN1CCN(c2cc3c(cc2F)c(=O)c(C(=O)O)cn3CC)CC1)c1nc(-c2ccccc2)cs1`, for which the GI50 is 0.372 µM in the test with EKVX NSCLC; 0.378 µM with HCT-116 colon; 0.842 µM in the test with HS 578T breast; 0.419 µM in the test on IGROV1 ovarian; 0.259 µM in the test on NCI-H522 lung; 0.331 µM in the test with NCI/ADR-RES ovarian. The GI50 was 0.475 µM with OVCAR-3 ovarian, 0.505 µM with OVCAR-5 ovarian, 0.248 µM with SK-MEL-2 melanoma and 0.32 µM in the test on SNB-75 CNS. For the same compound, the TGI with EKVX NSCLC is over 100 µM; in the test on HCT-116 colon it was over 100 µM; with HS 578T breast it was over 100 µM; in the test on IGROV1 ovarian it was over 100 µM; in the test on NCI-H522 lung it was 0.813 µM; in the test on NCI/ADR-RES ovarian, over 100 µM. In addition, the TGI in the test on OVCAR-3 ovarian is over 100 µM; in the test with OVCAR-5 ovarian, over 100 µM; in the test on SK-MEL-2 melanoma it was 0.692 µM; in the test with SNB-75 CNS, over 100 µM.
